Measured values published in the supplement of paper PMC10307832.

What was measured:
Test in all cases: relative viability (nuclei count vs DMSO), 5 days (fraction); higher = more cells survive
AZD8055 = compound: COc1ccc(-c2ccc3c(N4CCOC[C@@H]4C)nc(N4CCOC[C@@H]4C)nc3n2)cc1CO [AZD8055]
Summary of the method: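 Lung cancer cell lines received five library-drug doses (not always all listed) spaced by √10, pinned on vehicle-anchored 1536-well plates after an overnight stay at 37 °C. Five days later, with no medium change, nuclei were Hoechst-stained, imaged at 4× and counted with MetaXpress. Viability is treated-well nuclei relative to vehicle-well nuclei, as a median across plates. Passing plates had control CV below 25% and at least one doubling.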

AZD8055 + Foretinib = compound: COc1ccc(-c2ccc3c(N4CCOC[C@@H]4C)nc(N4CCOC[C@@H]4C)nc3n2)cc1CO [AZD8055] + COc1cc2c(Oc3ccc(NC(=O)C4(C(=O)Nc5ccc(F)cc5)CC4)cc3F)ccnc2cc1OCCCN1CCOCC1 [Foretinib] (partner 0.25 µM)
Summary of the method: (§1)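 Lung cancer cell lines in 1536-well plates got either a single drug or a fixed anchor-drug dose together with five library-drug doses (not always all listed) in √10 steps, by pin tool, on the day after seeding. Nuclei were counted after 5 days, and relative viability is the treated-to-vehicle ratio of nuclei counts. Values are medians of duplicate plates.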

AZD8055 + Palbociclib = compound: COc1ccc(-c2ccc3c(N4CCOC[C@@H]4C)nc(N4CCOC[C@@H]4C)nc3n2)cc1CO [AZD8055] + CC(=O)c1c(C)c2cnc(Nc3ccc(N4CCNCC4)cn3)nc2n(C2CCCC2)c1=O [Palbociclib] (partner 0.5 µM)
Summary of the method: as §1

AZD8055 + OSI-027 = compound: COc1ccc(-c2ccc3c(N4CCOC[C@@H]4C)nc(N4CCOC[C@@H]4C)nc3n2)cc1CO [AZD8055] + COc1cccc2cc(-c3nc([C@H]4CC[C@H](C(=O)O)CC4)n4ncnc(N)c34)[nH]c12 [OSI-027] (partner 0.5 µM)
Summary of the method: as §1

Cell Line | relative viability (AZD8055; 0.01 µM) | relative viability (AZD8055; 0.03162 µM) | relative viability (AZD8055; 0.1 µM) | relative viability (AZD8055; 0.3162 µM) | relative viability (AZD8055; 1 µM) | relative viability (AZD8055 + Foretinib; first compound 0.01 µM) | relative viability (AZD8055 + Foretinib; first compound 0.03162 µM) | relative viability (AZD8055 + Foretinib; first compound 0.1 µM) | relative viability (AZD8055 + Foretinib; first compound 0.3162 µM) | relative viability (AZD8055 + Foretinib; first compound 1 µM) | relative viability (AZD8055 + Palbociclib; first compound 0.01 µM) | relative viability (AZD8055 + Palbociclib; first compound 0.03162 µM) | relative viability (AZD8055 + Palbociclib; first compound 0.1 µM) | relative viability (AZD8055 + Palbociclib; first compound 0.3162 µM) | relative viability (AZD8055 + Palbociclib; first compound 1 µM) | relative viability (AZD8055 + OSI-027; first compound 0.01 µM) | relative viability (AZD8055 + OSI-027; first compound 0.03162 µM) | relative viability (AZD8055 + OSI-027; first compound 0.1 µM) | relative viability (AZD8055 + OSI-027; first compound 0.3162 µM) | relative viability (AZD8055 + OSI-027; first compound 1 µM)
PC-14 | 1.23 | 1.09 | 0.715 | 0.286 | 0.178 | 1.18 | 1.04 | 1.07 | 0.488 | 0.299 | 0.698 | 0.589 | 0.255 | 0.108 | 0.12 | 1.2 | 0.849 | 0.497 | 0.283 | 0.109
RERF-LC-KJ | 1.05 | 0.942 | 0.822 | 0.458 | 0.414 | 0.963 | 0.754 | 0.771 | 0.535 | 0.392 | 1.11 | 1.09 | 0.779 | 0.441 | 0.412 | 0.587 | 0.671 | 0.522 | 0.387 | 0.362
SK-LU-1 | 1.05 | 0.82 | 0.628 | 0.388 | 0.366 | 0.784 | 0.627 | 0.427 | 0.258 | 0.212 | 0.401 | 0.32 | 0.288 | 0.299 | 0.261 | 0.354 | 0.372 | 0.337 | 0.289 | 0.242
SK-MES-1 | 0.967 | 0.892 | 0.809 | 0.408 | 0.289 | 0.849 | 0.819 | 0.81 | 0.408 | 0.329 | 0.284 | 0.247 | 0.24 | 0.228 | 0.249 | 0.653 | 0.629 | 0.557 | 0.338 | 0.22
SW 1573 | 1.05 | 0.751 | 0.704 | 0.326 | 0.203 | 0.86 | 0.645 | 0.803 | 0.516 | 0.251 | 0.342 | 0.324 | 0.159 | 0.145 | 0.133 | 0.696 | 0.528 | 0.47 | 0.221 | 0.18
UMC-11 | 0.942 | 0.711 | 0.607 | 0.345 | 0.322 | 1 | 0.8 | 0.555 | 0.292 | 0.297 | 0.341 | 0.32 | 0.299 | 0.295 | 0.288 | 0.494 | 0.452 | 0.367 | 0.302 | 0.284
